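In this assay, cells in 96-well plates receive the compound at five concentrations for 48 hours. Endpoints are linearly interpolated between the surrounding concentrations. TGI denotes the concentration required for complete inhibition of growth.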
How the values were obtained:
Test in all cases: NCI-60 cell line screen, 48 h
786-0 renal = test system: 786-0 renal
A549 NSCLC = test system: A549 NSCLC
ACHN renal = test system: ACHN renal
BT-549 breast = test system: BT-549 breast
CAKI-1 renal = test system: CAKI-1 renal
CCRF-CEM leukemia = test system: CCRF-CEM leukemia
COLO 205 colon = test system: COLO 205 colon
DU-145 prostate = test system: DU-145 prostate
EKVX NSCLC = test system: EKVX NSCLC
HCC-2998 colon = test system: HCC-2998 colon
HCT-116 colon = test system: HCT-116 colon
HCT-15 colon = test system: HCT-15 colon
HL-60(TB) leukemia = test system: HL-60(TB) leukemia
HOP-62 NSCLC = test system: HOP-62 NSCLC
HOP-92 NSCLC = test system: HOP-92 NSCLC
HS 578T breast = test system: HS 578T breast
HT29 colon = test system: HT29 colon
IGROV1 ovarian = test system: IGROV1 ovarian
K-562 leukemia = test system: K-562 leukemia
KM12 colon = test system: KM12 colon
M14 melanoma = test system: M14 melanoma
MALME-3M melanoma = test system: MALME-3M melanoma
MCF7 breast = test system: MCF7 breast
MDA-MB-231 breast = test system: MDA-MB-231 breast
MDA-MB-435 = test system: MDA-MB-435
MDA-N = test system: MDA-N
MOLT-4 leukemia = test system: MOLT-4 leukemia
NCI-H226 lung = test system: NCI-H226 lung
NCI-H23 lung = test system: NCI-H23 lung
NCI-H460 lung = test system: NCI-H460 lung
NCI-H522 lung = test system: NCI-H522 lung
NCI/ADR-RES ovarian = test system: NCI/ADR-RES ovarian
OVCAR-3 ovarian = test system: OVCAR-3 ovarian
OVCAR-4 ovarian = test system: OVCAR-4 ovarian
OVCAR-5 ovarian = test system: OVCAR-5 ovarian
OVCAR-8 ovarian = test system: OVCAR-8 ovarian
PC-3 prostate = test system: PC-3 prostate
RPMI-8226 leukemia = test system: RPMI-8226 leukemia
RXF 393 renal = test system: RXF 393 renal
SF-268 CNS = test system: SF-268 CNS
SF-295 CNS = test system: SF-295 CNS
SF-539 CNS = test system: SF-539 CNS
SK-MEL-2 melanoma = test system: SK-MEL-2 melanoma
SK-MEL-28 melanoma = test system: SK-MEL-28 melanoma
SK-MEL-5 melanoma = test system: SK-MEL-5 melanoma
SK-OV-3 ovarian = test system: SK-OV-3 ovarian
SN12C renal = test system: SN12C renal
SNB-19 CNS = test system: SNB-19 CNS
SNB-75 CNS = test system: SNB-75 CNS
SR leukemia = test system: SR leukemia
SW-620 colon = test system: SW-620 colon
T-47D breast = test system: T-47D breast
TK-10 renal = test system: TK-10 renal
U251 CNS = test system: U251 CNS
UACC-257 melanoma = test system: UACC-257 melanoma
UACC-62 melanoma = test system: UACC-62 melanoma
LOX IMVI melanoma = test system: LOX IMVI melanoma
UO-31 renal = test system: UO-31 renal
A498 renal = test system: A498 renal

## Cc1c2ccccc2cc2nc3ccccc3n12
786-0 renal
  TGI: > 10 µM
A549 NSCLC
  TGI: > 10 µM
ACHN renal
  TGI: > 10 µM
BT-549 breast
  TGI: > 10 µM
CAKI-1 renal
  TGI: > 10 µM
CCRF-CEM leukemia
  TGI: > 10 µM
COLO 205 colon
  TGI: > 10 µM
DU-145 prostate
  TGI: > 10 µM
EKVX NSCLC
  TGI: > 10 µM
HCC-2998 colon
  TGI: > 10 µM
HCT-116 colon
  TGI: > 10 µM
HCT-15 colon
  TGI: > 10 µM
HL-60(TB) leukemia
  TGI: > 10 µM
HOP-62 NSCLC
  TGI: > 10 µM
HOP-92 NSCLC
  TGI: > 10 µM
HS 578T breast
  TGI: > 10 µM
HT29 colon
  TGI: > 10 µM
IGROV1 ovarian
  TGI: > 10 µM
K-562 leukemia
  TGI: > 10 µM
KM12 colon
  TGI: > 10 µM
M14 melanoma
  TGI: > 10 µM
MALME-3M melanoma
  TGI: > 10 µM
MCF7 breast
  TGI: > 10 µM
MDA-MB-231 breast
  TGI: > 10 µM
MDA-MB-435
  TGI: > 10 µM
MDA-N
  TGI: > 10 µM
MOLT-4 leukemia
  TGI: > 10 µM
NCI-H226 lung
  TGI: > 10 µM
NCI-H23 lung
  TGI: > 10 µM
NCI-H460 lung
  TGI: > 10 µM
NCI-H522 lung
  TGI: > 10 µM
NCI/ADR-RES ovarian
  TGI: > 10 µM
OVCAR-3 ovarian
  TGI: > 10 µM
OVCAR-4 ovarian
  TGI: > 10 µM
OVCAR-5 ovarian
  TGI: > 10 µM
OVCAR-8 ovarian
  TGI: > 10 µM
PC-3 prostate
  TGI: > 10 µM
RPMI-8226 leukemia
  TGI: > 10 µM
RXF 393 renal
  TGI: > 10 µM
SF-268 CNS
  TGI: > 10 µM
SF-295 CNS
  TGI: > 10 µM
SF-539 CNS
  TGI: > 10 µM
SK-MEL-2 melanoma
  TGI: > 10 µM
SK-MEL-28 melanoma
  TGI: > 10 µM
SK-MEL-5 melanoma
  TGI: > 10 µM
SK-OV-3 ovarian
  TGI: > 10 µM
SN12C renal
  TGI: > 10 µM
SNB-19 CNS
  TGI: > 10 µM
SNB-75 CNS
  TGI: > 10 µM
SR leukemia
  TGI: > 10 µM
SW-620 colon
  TGI: > 10 µM
T-47D breast
  TGI: > 10 µM
TK-10 renal
  TGI: > 10 µM
U251 CNS
  TGI: > 10 µM
UACC-257 melanoma
  TGI: > 10 µM
UACC-62 melanoma
  TGI: > 10 µM

## CC(C)CC(C(N)=O)C(=O)NC(Cc1ccccc1)NC(=O)CNC(=O)C(C)NC(=O)C(N)Cc1ccc(O)cc1 (centres undefined)
786-0 renal
  TGI: > 100 µM
A549 NSCLC
  TGI: > 100 µM
ACHN renal
  TGI: > 100 µM
BT-549 breast
  TGI: > 100 µM
CAKI-1 renal
  TGI: > 100 µM
CCRF-CEM leukemia
  TGI: > 100 µM
COLO 205 colon
  TGI: > 100 µM
DU-145 prostate
  TGI: > 100 µM
EKVX NSCLC
  TGI: > 100 µM
HCC-2998 colon
  TGI: > 100 µM
HCT-116 colon
  TGI: > 100 µM
HCT-15 colon
  TGI: > 100 µM
HL-60(TB) leukemia
  TGI: > 100 µM
HOP-62 NSCLC
  TGI: > 100 µM
HS 578T breast
  TGI: > 100 µM
HT29 colon
  TGI: > 100 µM
IGROV1 ovarian
  TGI: > 100 µM
K-562 leukemia
  TGI: > 100 µM
KM12 colon
  TGI: > 100 µM
LOX IMVI melanoma
  TGI: > 100 µM
M14 melanoma
  TGI: > 100 µM
MALME-3M melanoma
  TGI: > 100 µM
MCF7 breast
  TGI: > 100 µM
MDA-MB-231 breast
  TGI: > 100 µM
MDA-MB-435
  TGI: > 100 µM
MDA-N
  TGI: > 100 µM
MOLT-4 leukemia
  TGI: > 100 µM
NCI-H226 lung
  TGI: > 100 µM
NCI-H23 lung
  TGI: > 100 µM
NCI-H460 lung
  TGI: > 100 µM
NCI-H522 lung
  TGI: > 100 µM
NCI/ADR-RES ovarian
  TGI: > 100 µM
OVCAR-3 ovarian
  TGI: > 100 µM
OVCAR-4 ovarian
  TGI: > 100 µM
OVCAR-5 ovarian
  TGI: > 100 µM
OVCAR-8 ovarian
  TGI: > 100 µM
PC-3 prostate
  TGI: > 100 µM
RPMI-8226 leukemia
  TGI: > 100 µM
RXF 393 renal
  TGI: > 100 µM
SF-268 CNS
  TGI: > 100 µM
SF-295 CNS
  TGI: > 100 µM
SF-539 CNS
  TGI: > 100 µM
SK-MEL-2 melanoma
  TGI: > 100 µM
SK-MEL-28 melanoma
  TGI: > 100 µM
SK-MEL-5 melanoma
  TGI: > 100 µM
SK-OV-3 ovarian
  TGI: > 100 µM
SN12C renal
  TGI: > 100 µM
SNB-19 CNS
  TGI: > 100 µM
SNB-75 CNS
  TGI: > 100 µM
SR leukemia
  TGI: > 100 µM
SW-620 colon
  TGI: > 100 µM
T-47D breast
  TGI: > 100 µM
TK-10 renal
  TGI: > 100 µM
U251 CNS
  TGI: > 100 µM
UACC-257 melanoma
  TGI: > 100 µM
UACC-62 melanoma
  TGI: > 100 µM
UO-31 renal
  TGI: > 100 µM

## Cc1nc2cc([N+](=O)[O-])ccc2c(NCCCN(C)C)c1C
786-0 renal
  TGI: 30.9 µM
A498 renal
  TGI: 30.5 µM
A549 NSCLC
  TGI: 32.2 µM
ACHN renal
  TGI: 76.7 µM
BT-549 breast
  TGI: 26.1 µM
CAKI-1 renal
  TGI: 55.6 µM
CCRF-CEM leukemia
  TGI: > 100 µM
COLO 205 colon
  TGI: 8.55 µM
DU-145 prostate
  TGI: 68.9 µM
HCT-116 colon
  TGI: 22.4 µM
HCT-15 colon
  TGI: 31.3 µM
HL-60(TB) leukemia
  TGI: > 100 µM
HOP-62 NSCLC
  TGI: 28.2 µM
HOP-92 NSCLC
  TGI: 8.09 µM
HS 578T breast
  TGI: 75.7 µM
HT29 colon
  TGI: 10.9 µM
IGROV1 ovarian
  TGI: 11.9 µM
K-562 leukemia
  TGI: > 100 µM
KM12 colon
  TGI: 26.6 µM
LOX IMVI melanoma
  TGI: 36 µM
M14 melanoma
  TGI: 26.7 µM
MALME-3M melanoma
  TGI: 18.9 µM
MCF7 breast
  TGI: 11 µM
MDA-MB-231 breast
  TGI: 14.2 µM
MDA-MB-435
  TGI: 31.1 µM
MDA-N
  TGI: 28.2 µM
MOLT-4 leukemia
  TGI: 29.4 µM
NCI-H226 lung
  TGI: 25.9 µM
NCI-H23 lung
  TGI: 15.4 µM
NCI-H460 lung
  TGI: 13.5 µM
NCI-H522 lung
  TGI: 10.7 µM
NCI/ADR-RES ovarian
  TGI: 39.9 µM
OVCAR-3 ovarian
  TGI: 33.7 µM
OVCAR-4 ovarian
  TGI: 11.1 µM
OVCAR-5 ovarian
  TGI: 38.3 µM
OVCAR-8 ovarian
  TGI: 35.1 µM
PC-3 prostate
  TGI: 24.3 µM
RPMI-8226 leukemia
  TGI: > 100 µM
RXF 393 renal
  TGI: 27.6 µM
SF-268 CNS
  TGI: > 100 µM
SF-295 CNS
  TGI: 48.4 µM
SF-539 CNS
  TGI: 30 µM
SK-MEL-2 melanoma
  TGI: 22.7 µM
SK-MEL-28 melanoma
  TGI: > 100 µM
SK-MEL-5 melanoma
  TGI: 21.7 µM
SK-OV-3 ovarian
  TGI: > 100 µM
SN12C renal
  TGI: 34.5 µM
SNB-75 CNS
  TGI: > 100 µM
SR leukemia
  TGI: > 100 µM
SW-620 colon
  TGI: 24.7 µM
T-47D breast
  TGI: 29 µM
TK-10 renal
  TGI: 67 µM
U251 CNS
  TGI: 63.5 µM
UACC-257 melanoma
  TGI: 18.6 µM
UACC-62 melanoma
  TGI: 33.9 µM
UO-31 renal
  TGI: 32.1 µM

From PubChem BioAssay (NCI)
